Results taken from patent US20120220658A1, “Method for Treating Sepsis or Septic Shock” (University of Medicine and Dentistry of New Jersey, priority 2009, published 2012).
“Also recorded” adds a separate entry of the source.

Assays:
CLP rats [1] = test: Survival in cecal ligation and perforation (CLP) model of sepsis, LXA4 i.p.; type: in vivo, male Sprague-Dawley rats; conditions: 40 μg/kg i.p. five hours after CLP surgery; subgroup of rats that lived longer than 48 hours; vs vehicle treated CLP rats
Description: (§1) Surgery. Cecal ligation and perforation (CLP) was performed on male Sprague-Dawley rats (250-350 g) according to known methods (Chaudry, et al. (1979) Surgery 85:205-21). The CLP model of sepsis is an established, clinically relevant model of sepsis (Rittirsch et al., (2009) Nature Protocol 4(1):31-36). Animals were fasted overnight before surgery. On the day of surgery, rats were anesthetized with Isofluorane (+oxygen). A 2-cm-long midline incision was made in the abdomen to expose the cecum. Fecal matter was massaged into the cecum. The distal two-thirds of the cecum was ligated with 4.0 surgical silk. Using an 18-gauge needle, the cecum was punctured twice. Some fecal matter was massaged out of the cecum through these holes. The cecum was placed back into the abdomen, which was then closed. Saline (2 ml/100 g; s.c.) was injected to replace any fluids lost during surgery. Five hours after surgery, the rats were given either LXA4 (40 μg/kg rat; i.p.) or saline vehicle. […]
In this study, the effect of LXA4 in the clinically relevant cecal ligation and puncture (CLP) model of sepsis was analyzed. […]
Survival. […] As there was a significant change in the slope of the individual survival curves starting at 48 hours, the effects of LXA4 on systemic inflammatory mediator release, bacterial load and peritoneal leukocyte counts 48 hours after CLP sepsis were analyzed.

[2] = system: bacterial load in CLP rats; test: Bacterial load (CFU) in blood and peritoneal lavage fluid after CLP; type: in vivo, male Sprague-Dawley rats; conditions: 40 μg/kg i.p. 5 h after CLP; 48 hours after CLP; vs saline vehicle
Description: as §1, with “vehicle. This concentration of LXA4 was derived from published in vivo work in rodents (Bannenberg et al., (2004) Br. J. Pharmacol. 143:43-52).” for “vehicle.”
Bacterial Load. […] At the end of the incubation period, colony forming units (CFU) were counted.
Bacterial Load. Bacterial load in blood and peritoneal lavage fluid was measured after plating of serially diluted samples on tryptic soy agar plates. […]

[3] = system: peritoneal leukocytes of CLP rats; test: Peritoneal cell count and differential after CLP; type: in vivo, male Sprague-Dawley rats; conditions: 40 μg/kg i.p. 5 h after CLP; 48 hours after CLP; vs CLP rats given saline
Description: (§2) Surgery. Cecal ligation and perforation (CLP) was performed on male Sprague-Dawley rats (250-350 g) according to known methods (Chaudry, et al. (1979) Surgery 85:205-21). The CLP model of sepsis is an established, clinically relevant model of sepsis (Rittirsch et al., (2009) Nature Protocol 4(1):31-36). Animals were fasted overnight before surgery. On the day of surgery, rats were anesthetized with Isofluorane (+oxygen). A 2-cm-long midline incision was made in the abdomen to expose the cecum. Fecal matter was massaged into the cecum. The distal two-thirds of the cecum was ligated with 4.0 surgical silk. Using an 18-gauge needle, the cecum was punctured twice. Some fecal matter was massaged out of the cecum through these holes. The cecum was placed back into the abdomen, which was then closed. Saline (2 ml/100 g; s.c.) was injected to replace any fluids lost during surgery. Five hours after surgery, the rats were given either LXA4 (40 μg/kg rat; i.p.) or saline vehicle. This concentration of LXA4 was derived from published in vivo work in rodents (Bannenberg et al., (2004) Br. J. Pharmacol. 143:43-52). At the end of 48 hours, rats were anesthetized with pentobarbital (50 mg/kg, i.p.). A midline incision was made and the peritoneal cavity was lavaged with 20 ml of PBS containing 0.38% Na citrate (as anticoagulant).
Two hundred μl of lavage fluid was taken immediately for measurement of bacterial load. The rest of the fluid was passed through a […] (diameter) nylon mesh to remove debris and then centrifuged at 110×g for 7 minutes at 4° C. The supernatant was removed and stored at −80° C. for further analyses. Forty ml red blood cell lysis buffer was added to the cell pellet for 10 minutes with gentle inversion before being centrifuged again at 110×g (7 minutes; 4° C.). Cells were resuspended in 1 ml PBS.
Peritoneal Cell Differential. Peritoneal cells were counted using an automated hemocytometer (Beckman Coulter Counter; Z4) and then cytospun onto superfrost ++ slides. In order to perform cell differentials, DIFQUIK staining was performed according to manufacturer's instructions. […]

IL-6 = test: Plasma IL-6 level after CLP; type: in vivo, male Sprague-Dawley rats; conditions: 40 μg/kg i.p. 5 h after CLP; 48 hours after CLP; vs saline vehicle
Description: as §2, with “A midline incision was made and the peritoneal cavity was lavaged with 20 ml of PBS containing 0.38% Na citrate (as anticoagulant).” left out
(§3) Plasma IL-6, MCP-1 and IL-10 Levels. Plasma IL-6, MCP-1 and IL-10 levels were measured using commercially available kits. […]

MCP-1 = test: Plasma MCP-1 level after CLP; type: in vivo, male Sprague-Dawley rats; conditions: 40 μg/kg i.p. 5 h after CLP; 48 hours after CLP; vs saline vehicle
Description: as §1, with “vehicle. This concentration of LXA4 was derived from published in vivo work in rodents (Bannenberg et al., (2004) Br. J. Pharmacol. 143:43-52).” for “vehicle.”
Plasma IL-6, MCP-1 and IL-10 Levels. Plasma IL-6, MCP-1 and IL-10 levels were measured using commercially available kits.
Plasma MCP-1. […] Accordingly, plasma MCP-1 was measured as another marker of systemic inflammatory response. […]

IL-10 = test: Plasma IL-10 level after CLP; type: in vivo, male Sprague-Dawley rats; conditions: 40 μg/kg i.p. 5 h after CLP; 48 hours after CLP; vs saline vehicle
Description: as §2, with “A midline incision was made and the peritoneal cavity was lavaged with 20 ml of PBS containing 0.38% Na citrate (as anticoagulant).” left out
as §3

CLP rats [4] = test: Survival after CLP-induced sepsis, intravenous LXA4; type: in vivo; conditions: 8 μg/kg i.v., single dose 1 hour after CLP; monitored every 24 hours for 8 days
Description: as §1, with “vehicle. This concentration of LXA4 was derived from published in vivo work in rodents (Bannenberg et al., (2004) Br. J. Pharmacol. 143:43-52).” for “vehicle.”
To further examine the use of LXA4 in the treatment of sepsis, the effect intravenous LXA4 administration on survival after CLP-induced sepsis was examined. […] Survival was monitored every 24 hours for 8 days (FIG. 7).

## CCCCC[C@H](O)/C=C/C=C\C=C\C=C\[C@@H](O)[C@@H](O)CCCC(=O)O [LXA4, 5S,6R,15S-trihydroxy-7E,9E,11Z,13E-Eicosatetraenoic acid]
CLP rats [1]
  survival (Kaplan-Meier, log-rank test): significantly increased survival; also recorded: increased survival rate
[2]
  bacterial load in the peritoneal cavity (CFU): reduced bacterial load in the peritoneal cavity but the reduction did not reach significance
  blood bacterial load (CFU): reduces blood bacterial load; also recorded: substantially reduced blood bacterial load
[3]
  number of monocytes/macrophages in the peritoneal cavity: increased the number of monocytes/macrophages
  number of neutrophils in the peritoneal cavity: without affecting the number of neutrophils; also recorded: number of neutrophils remained similar in both groups
  total number of peritoneal cells (leukocytes): increased the total number of peritoneal cells; also recorded: increased peritoneal leukocytes further
IL-6
  plasma IL-6 levels: reduced plasma levels of IL-6
MCP-1
  plasma MCP-1 levels: reduced plasma levels of MCP-1; also recorded: significantly reduced plasma MCP-1 levels
IL-10
  plasma IL-10 levels: significantly decreased plasma IL-10 levels
CLP rats [4]
  survival (Kaplan-Meier, log rank test): significantly increased survival
